Measured values reported in US11236086B2, “Substituted pyrrolopyridines as inhibitors of activin receptor-like kinase” (BLUEPRINT MEDICINES CORPORATION, priority 2017, dated 2022).

How the values were obtained:
[1] = target: T1, ALK2R206H (mutant ALK2, N-terminally tagged with GST) (Homo sapiens, UniProt Q04771, R206H); test: ALK binding assay (LANTHASCREEN TR-FRET competitive binding, displacement of Kinase Tracer 178); settings: read-out: Binding Assay (IC50 class)
T1 construct: purchased Carna Bioscience or ThermoFisher 09-148 or PV6232
T1 sequence (Q04771 21-509 R206H): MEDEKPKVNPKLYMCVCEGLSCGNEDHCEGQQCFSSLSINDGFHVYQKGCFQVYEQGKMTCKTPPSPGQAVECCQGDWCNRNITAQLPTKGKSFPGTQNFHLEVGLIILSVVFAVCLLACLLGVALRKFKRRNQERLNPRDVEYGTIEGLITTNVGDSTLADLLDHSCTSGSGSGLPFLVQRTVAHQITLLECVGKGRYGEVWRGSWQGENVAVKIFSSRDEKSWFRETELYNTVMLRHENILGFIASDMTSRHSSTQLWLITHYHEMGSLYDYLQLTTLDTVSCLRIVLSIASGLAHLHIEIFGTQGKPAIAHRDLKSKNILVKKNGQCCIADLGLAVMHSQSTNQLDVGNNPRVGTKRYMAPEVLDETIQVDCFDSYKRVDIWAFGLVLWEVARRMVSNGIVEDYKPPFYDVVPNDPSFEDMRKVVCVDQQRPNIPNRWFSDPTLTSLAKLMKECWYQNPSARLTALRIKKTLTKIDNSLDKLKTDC
How it was run: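 GST-tagged ALK2 R206H (2-5 nM) mixed with Eu-anti-GST antibody (4-10 nM), Kinase Tracer 178 (50 nM, near its Kd) and compound titration (1% DMSO) in Kinase Buffer A, 30 min at room temperature. Tracer displacement read as TR-FRET ratio, normalized to controls; IC50 from 4-parameter fit.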

[2] = target: T2, human ALK2 R206H (Homo sapiens, UniProt Q04771, R206H); test: Cell-based ALK2-R206H cell activity assay (Smad1-Ser463/Ser465 phosphorylation by AlphaLISA in HEK293-ALK2-R206H cells); settings: phospho-Smad1 AlphaLISA, read-out: Cell Line (Cell Assay, IC50 class)
T2 construct: expressed in transfected cells; host or cells: HEK293 (ATCC CRL1573), lentivirus transduction, blasticidin selection
T2 sequence (Q04771 21-509 R206H): T1 sequence (Q04771 21-509 R206H)
Experimental: Example 11. Cell-Based ALK2-R206H Cell Activity Assay
A HEK293 (ATCC, Cat No. CRL1573) based stable cell line expressing human ALK2 R206H cDNA (synthesized by GeneScript, Piscataway, N.J.) and a FLAG tag at the C-terminus was generated by lentivirus transduction and subsequent blasticidin (Life Technologies, Cat No. A1113902) selection at 10 μg/ml for >2 wks. This cell line was named HEK293-ALK2-R206H.
B. Measurement of Smad1-Ser463/Ser465 Phosphorylation by AlphaLISA
HEK293-ALK2-R206H cells were grown, harvested, and then resuspended in serum-free, phenol red-free DMEM high glucose media (Life Technologies, Cat No. 31053). The media also contained 50 units/ml penicillin and 50 μg/ml streptomycin (Life Technologies, Cat. No. 15070-063). HEK293-ALK2-R206H cells were then plated in white opaque 384-wells microplates (2×10^4/well) (OptiPlate-384, PerkinElmer, Waltham, Mass., Cat No. 6007299) overnight (>16h) at 37° C. 5% CO2 for use in the assay.
Test compounds were first diluted to 4 mM or 0.4 mM and then serially diluted 3-fold into 10 different concentrations using DMSO. Each concentration of compound was further diluted 40-fold with phenol red-free DMEM (Life Technologies, Cat No. 31053). 2 μl of the diluted compounds were then dispensed into the HEK293-ALK2-R206H cell-containing wells of the microplates in duplicates. In this way, each compound was tested in 10 doses (3-fold serial dilution with the top concentration being 10 μM or 1 μM). Liquid handling was achieved using a Bravo Automated Liquid Handling Platform (Agilent Technologies). DMSO without compound was used as a negative control. The positive control was 1 μM LDN193189, a known bone morphogenetic protein (BMP inhibitor).
After 2-3 hours of incubation with test compound or control, the cells were lysed and signal was developed using ALPHASCREEN® SUREFIRE® SMAD1 (p-Ser463/465) cellular kinase assay kit (PerkinElmer, Cat No. TGRSM1S10K) following the manufacturer's recommended protocol. The microplates were read using Perkin Elmer ENVISION® plate reader (emission […]). The signal reflected the level of phospho-Ser/463/465-Smad1 in the lysate. The raw data were plotted using the DMSO negative and LDN193189 positive controls as the 0% and 100% inhibition, respectively. The 10-point dose response curve was used to calculate the IC50 values.
The results of this assay are shown in Table 3 in the column labeled “Cell Assay” wherein “A” represents an IC50 of less than or equal to 100 nM; “B” an IC50 of greater than 100 nM and less than or equal to 500 nM; “C” an IC50 of greater than 500 nM. Blank values in the table indicate that the particular compound was not tested in this assay.

Compound: Cc1nc(-c2cc3c(N4CCN(C(=O)OC5CCC5)CC4)ccnc3[nH]2)sc1C [Compound 242]
- IC50 [1]: ≤ 10 nM
- IC50 [2]: ≤ 100 nM

Compound: Cn1cnc(-c2[nH]c3nccc(N4CCN(C(=O)O[C@H]5CCC5(F)F)CC4)c3c2C#N)c1 [Compound 369]
- IC50 [1]: ≤ 10 nM
- IC50 [2]: ≤ 100 nM

Compound: CCOC(=O)N1CCN(c2ccnc3[nH]c(-c4ccccn4)cc23)CC1 [Compound 7]
- IC50 [1]: ≤ 10 nM
- IC50 [2]: ≤ 100 nM

Compound: CCOC(=O)N1CCN(c2ccnc3[nH]c(-c4cccnc4)cc23)CC1 [Compound 8]
- IC50 [1]: ≤ 10 nM
- IC50 [2]: 100 to 500 nM

Compound: CC(C)OC(=O)N1CCN(c2ccnc3[nH]c(-c4cnn(C)c4)c(Cl)c23)CC1 [Compound 186]
- IC50 [1]: ≤ 10 nM
- IC50 [2]: 100 to 500 nM

Compound: O=C(C1CC1)N1CCN(c2ccnc3[nH]c(-c4ccc(OC5CCC5)cc4)cc23)CC1 [Compound 273]
- IC50 [1]: ≤ 10 nM
- IC50 [2]: 100 to 500 nM

Compound: Cc1nc(-c2cc3c(N4CCN(C(=O)O[C@@H]5CCC5(F)F)CC4)ccnc3[nH]2)cn1C [Compound 326]
- IC50 [1]: ≤ 10 nM
- IC50 [2]: ≤ 100 nM

Compound: CCOc1ccc(-c2cc3c(N4CCN(C(=O)C5CC5)CC4)ccnc3[nH]2)cc1 [Compound 127]
- IC50 [1]: 10 to 50 nM
- IC50 [2]: 100 to 500 nM

Compound: Cn1ncc(-c2[nH]c3nccc(N4CCN(C(=O)OC5COC5)CC4)c3c2C#N)n1 [Compound 215]
- IC50 [1]: ≤ 10 nM
- IC50 [2]: 100 to 500 nM

Compound: N#Cc1c(-c2cn(C(F)F)cn2)[nH]c2nccc(N3CCN(C(=O)OC4COC4)CC3)c12 [Compound 375]
- IC50 [1]: ≤ 10 nM
- IC50 [2]: ≤ 100 nM

Compound: COCCOc1ccc(-c2cc3c(N4CCN(C(=O)C5CC5)CC4)ccnc3[nH]2)cc1 [Compound 286]
- IC50 [1]: ≤ 10 nM
- IC50 [2]: 100 to 500 nM

Compound: Cc1c(-c2cc3c(N4CCN(C(=O)[C@H]5CC[C@H](C#N)CC5)CC4)ccnc3[nH]2)cnn1C [Compound 334]
- IC50 [1]: ≤ 10 nM
- IC50 [2]: 100 to 500 nM

Compound: Cn1cc(-c2[nH]c3nccc(N4CCN(C(=O)[C@H]5CC[C@H](C#N)CC5)CC4)c3c2Cl)cn1 [Compound 397]
- IC50 [1]: ≤ 10 nM
- IC50 [2]: ≤ 100 nM

Compound: Cn1cc(-c2cc3c(N4CCN(C(=O)OCCC#N)CC4)ccnc3[nH]2)cn1 [Compound 71]
- IC50 [1]: ≤ 10 nM
- IC50 [2]: 100 to 500 nM

Compound: O=C(OC1COC1)N1CCN(c2ccnc3[nH]c(-c4ncc(C5CC5)s4)cc23)CC1 [Compound 312]
- IC50 [1]: ≤ 10 nM
- IC50 [2]: ≤ 100 nM

Compound: Cn1cc(-c2[nH]c3nccc(N4CCN(C(=O)O[C@H]5C[C@H](F)C5)CC4)c3c2C#N)cn1 [Compound 295]
- IC50 [1]: ≤ 10 nM
- IC50 [2]: ≤ 100 nM

Compound: CC(C)(C)c1csc(-c2cc3c(N4CCN(C(=O)OC5COC5)CC4)ccnc3[nH]2)n1 [Compound 372]
- IC50 [1]: ≤ 10 nM
- IC50 [2]: ≤ 100 nM

Compound: Cc1csc(-c2cc3c(N4CCN(C(=O)OC5COC5)CC4)ccnc3[nH]2)c1 [Compound 167]
- IC50 [1]: ≤ 10 nM
- IC50 [2]: ≤ 100 nM

Compound: Cc1nc(-c2cc3c(N4CCN(C(=O)O[C@H]5C[C@H](F)C5)CC4)ccnc3[nH]2)cs1 [Compound 260]
- IC50 [1]: ≤ 10 nM
- IC50 [2]: ≤ 100 nM

Compound: N#Cc1c(-c2cn3c(n2)COCC3)[nH]c2nccc(N3CCN(C(=O)OC4COC4)CC3)c12 [Compound 394]
- IC50 [1]: ≤ 10 nM
- IC50 [2]: ≤ 100 nM

Compound: Cn1cc(-c2cc3c(N4CCN(C(=O)OC5COC5)CC4)ccnc3[nH]2)c(Cl)n1 [Compound 277]
- IC50 [1]: ≤ 10 nM
- IC50 [2]: ≤ 100 nM

Compound: CCOC(=O)N1CCN(c2ccnc3[nH]c(-c4cnn(C(F)F)c4)c(C#N)c23)CC1 [Compound 258]
- IC50 [1]: ≤ 10 nM
- IC50 [2]: ≤ 100 nM

Compound: CCOC(=O)N1CCN(c2ccnc3[nH]c(-c4ncc(C(C)C)s4)cc23)CC1 [Compound 177]
- IC50 [1]: ≤ 10 nM
- IC50 [2]: ≤ 100 nM

Compound: Cc1c(-c2cnn(C)c2)[nH]c2nccc(N3CCN(C(=O)OC4CCC4)CC3)c12 [Compound 140]
- IC50 [1]: ≤ 10 nM
- IC50 [2]: ≤ 100 nM

Compound: CCOC(=O)N1CCN(c2ccnc3[nH]c(-c4ncc(CC)s4)cc23)CC1 [Compound 113]
- IC50 [1]: ≤ 10 nM
- IC50 [2]: ≤ 100 nM

Compound: Cn1cc(-c2[nH]c3nccc(N4CCN(C(=O)O[C@H]5CCOC5)CC4)c3c2C#N)cn1 [Compound 289]
- IC50 [1]: ≤ 10 nM
- IC50 [2]: ≤ 100 nM
